Series [1] is described as follows: Apparent permeability across apical to basolateral side in human Caco2/TC7 cells after 2 hrs. The class given is ADME, cell-based. Particulars: Caco-2. A general note: Passage across Caco-2 layers is used to estimate intestinal permeability.
The subject of series [2] is Erythrocyte. Put plainly: Reduction of glutathione level in Wistar rat RBC at 25 ug/mL measured at 60 mins relative to untreated control. It is filed as functional. The arrangement: scale not given: the % may be the effect or the level left.
Series [3] has as its system Erythrocyte. Briefly: Reduction of glutathione level in Wistar rat RBC at 25 ug/mL measured at 120 mins relative to untreated control. Also noted: scale not given: the % may be the effect or the level left. The class given is functional.
Series [4] relates to Plasmodium falciparum. Put plainly: Antimalarial activity against Plasmodium falciparum C235 containing mdr1 transporter gene assessed as growth inhibition after 72 hrs by SYBR Green 1-based fluorescence assay. The class given is functional, organism-based. Particulars: C235, MDR1, 72 h.
Series [5] in a line: Apparent permeability across apical to basolateral side in human Caco2/TC7 cells at 50 uM after 2 hrs. It is filed as ADME, cell-based. As to conditions: Caco-2.
For series [6], the system named is Erythrocyte. Briefly: Reduction of glutathione level in Wistar rat RBC at 25 ug/mL measured at 90 mins relative to untreated control. The class given is functional. The arrangement: scale not given: the % may be the effect or the level left.
For series [7], the system named is Plasmodium falciparum. Put plainly: Antimalarial activity against Plasmodium falciparum D6 assessed as growth inhibition after 72 hrs by SYBR Green 1-based fluorescence assay. It is filed as functional, organism-based. As to conditions: D6, 72 h.
Series [8] deals with Plasmodium falciparum. Briefly: Selectivity ratio of IC50 for Plasmodium falciparum C235 to IC50 for Plasmodium falciparum D6. The class given is functional.
Series [9] concerns Erythrocyte. Briefly: Reduction of glutathione level in Wistar rat RBC at 25 ug/mL measured at 30 mins relative to untreated control. It is filed as functional. The arrangement: scale not given: the % may be the effect or the level left.
Series [10] in a line: Drug uptake in Wistar rat RBC at 25 ug/mL up to 2 hrs. As to conditions: erythrocyte. The class given is ADME, cell-based.
Series [11] concerns Erythrocyte. Briefly: Reduction of glutathione level in Wistar rat RBC at 25 ug/mL measured at 5 mins relative to untreated control. It is filed as functional. Also noted: scale not given: the % may be the effect or the level left.
Series [12] is described as follows: Drug uptake in Wistar rat RBC at 25 ug/mL. The class given is ADME, cell-based. As to conditions: erythrocyte.
For series [13], the system named is Erythrocyte. Put plainly: Reduction of glutathione level in Wistar rat RBC at 25 ug/mL measured at 15 mins relative to untreated control. It is filed as functional. The arrangement: scale not given: the % may be the effect or the level left.
Series [14] can be described thus: Metabolic stability in human Caco2/TC7 cells at 50 uM up to 2 hrs. The class given is ADME, cell-based. Particulars: caco-2, 2 h.

Structures are written as SMILES.

The source of these data is ChEMBL document CHEMBL2321756, “From a cytotoxic agent to the discovery of a novel antimalarial agent” (Bioorg Med Chem Lett, 2013).

The term Papp A→B denotes how fast a substance crosses the layer from the apical side. As a reminder, the IC50 is the concentration that gives 50% inhibition.

In the case of `COCCc1ccc(OCC(O)CNC(C)C)cc1` (stereo not given) [METOPROLOL], the Papp A→B at 2 h in series [1] is 29.9 ×10⁻⁶ cm/s.
Regarding `Cl.O=C1/C(=C/c2ccc(Cl)cc2)CN(C(=O)c2ccc(OCCN3CCOCC3)cc2)C/C1=C\c1ccc(Cl)cc1`, the Activity in the series on Erythrocyte [2] is listed as 8.95%; in the series on Erythrocyte [3], 10.9%; in the series with Erythrocyte [6] it was 7.51%; in the series on Erythrocyte [9], 12.9%; in the series on Erythrocyte [11], 12.6%; in the series on Erythrocyte [13], 12.3%. Moreover, the concentration for half-maximal inhibition (IC50) with Plasmodium falciparum [4] is 1970 nM; in the series with Plasmodium falciparum [7], 600 nM. Further, in series [5], the apparent permeability from apical to basolateral (Papp A→B) at 2 h, 50 µM amounted to 1.2 ×10⁻⁶ cm/s. Also, the “Ratio IC50” value in the series with Plasmodium falciparum [8] was determined as 3.3. The Drug uptake amounted to 80% in series [10] and 75% in series [12]. The Stability entry in series [14] was “Stable”.
Consider `O[C@@H](c1cc(C(F)(F)F)nc2c(C(F)(F)F)cccc12)[C@H]1CCCCN1` [(S,R)-MEFLOQUINE], for which the IC50 in the series on Plasmodium falciparum [4] worked out at 50 nM.
